Measured values from ChEMBL document CHEMBL3045937, “Synthesis and hypoglycemic activity evaluation of 7-alkoxyl-rhein” (2012).

Experiments:
Homo sapiens = species on record: Homo sapiens; experiment: Inhibition of alpha-glucoamylase (unknown origin) assessed as 1-Ki/Kc X 100% at 100 mg/l after 10 min spectrophotometry
[1] = Inhibition of alpha-glucoamylase (unknown origin) assessed as Ki/Kc at 100 mg/l after 10 min spectrophotometry; values are per cent of control; details: Homo sapiens
Mus musculus [2] = experiment: Hypoglycemic activity in alloxan-induced diabetic Mus musculus (mouse) assessed as blood glucose level at 10 mg/kg, qd for 14 days measured on 7th day (reference value: 19.79 +/- 1.28 mmol/l); type: functional
Mus musculus [3] = experiment: Hypoglycemic activity in alloxan-induced diabetic Mus musculus (mouse) assessed as blood glucose level at 50 mg/kg, qd for 14 days measured on 7th day (reference value: 19.79 +/- 1.28 mmol/l); type: functional
Mus musculus [4] = experiment: Hypoglycemic activity in alloxan-induced diabetic Mus musculus (mouse) assessed as blood glucose level at 20 mg/kg, qd for 14 days measured on 14th day (reference value: 19.04 +/- 1.27 mmol/l); type: functional
Mus musculus [5] = experiment: Hypoglycemic activity in alloxan-induced diabetic Mus musculus (mouse) assessed as blood glucose level at 20 mg/kg, qd for 14 days measured on 7th day (reference value: 19.79 +/- 1.28 mmol/l); type: functional
Mus musculus [6] = experiment: Hypoglycemic activity in alloxan-induced diabetic Mus musculus (mouse) assessed as blood glucose level at 10 mg/kg, qd for 14 days measured on 14th day (reference value: 19.04 +/- 1.27 mmol/l); type: functional
Mus musculus [7] = experiment: Hypoglycemic activity in alloxan-induced diabetic Mus musculus (mouse) assessed as blood glucose level at 50 mg/kg, qd for 14 days measured on 14th day (reference value: 19.04 +/- 1.27 mmol/l); type: functional

Row | SMILES | inhibition (Homo sapiens) | residual activity [1] | Activity (Mus musculus [2]) | Activity (Mus musculus [3]) | Activity (Mus musculus [4]) | Activity (Mus musculus [5]) | Activity (Mus musculus [6]) | Activity (Mus musculus [7])
1 | Cc1cc(O)c2c(c1)C(=O)c1cc(O)cc(O)c1C2=O | 23.6% | 76.4% |  |  |  |  |  | 
2 | CCCCCCOc1cc(O)c2c(c1)C(=O)c1cc(C(=O)O)cc(O)c1C2=O | 54.5% | 45.5% |  |  |  |  |  | 
3 | CCCCCCCCOc1cc(O)c2c(c1)C(=O)c1cc(C(=O)O)cc(O)c1C2=O | 60.6% | 39.4% | 17.05 mmol/L | 10.05 mmol/L | 10.04 mmol/L | 16.79 mmol/L | 12.03 mmol/L | 7.03 mmol/L
4 | CCCCCCCCCCCCCCCCOc1cc(O)c2c(c1)C(=O)c1cc(C(=O)O)cc(O)c1C2=O | 29.8% | 70.2% |  |  |  |  |  | 
5 | CCCCOc1cc(O)c2c(c1)C(=O)c1cc(C(=O)O)cc(O)c1C2=O | 45% | 55% |  |  |  |  |  | 
6 | C[C@H]1O[C@H](O[C@H]2[C@H](O)[C@@H](O)[C@@H](O[C@H]3[C@H](O)[C@@H](O)C(O)O[C@@H]3CO)O[C@@H]2CO)[C@H](O)[C@@H](O)[C@@H]1N[C@H]1C=C(CO)[C@@H](O)[C@H](O)[C@H]1O (some centres not stated) [ACARBOSE] | 91.4% | 8.6% | 10.58 mmol/L |  |  |  | 6.87 mmol/L | 
7 | CCCCCCCCCCCCOc1cc(O)c2c(c1)C(=O)c1cc(C(=O)O)cc(O)c1C2=O | 50.7% | 49.3% |  |  |  |  |  | 
